Where “and” joins values, the source holds several entries; their conditions need not be identical. Equal entries are not always repeated.
Experiments:
Assay type in all cases: cell-based, human
Jurkat E6.1 cells [1] = experiment: cell death, PI exclusion and flow cytometry, time course (Figure S9b); parameters: unit not given here; settings: replicates, listed as AVX420
Jurkat E6.1 cells [2] = experiment: intracellular ROS, ROS-red staining and flow cytometry, Jurkat E6.1; parameters: ROS Negative Cells / ROS Negative Cells (Figure S9 a) / ROS Negative Cells (Figure S9c): unit not given here; settings: for ROS Negative Cells (Figure S9 a) / ROS Positive Cells (Figure S9 a): replicates; for ROS Negative Cells (Figure S9 a) / ROS Positive Cells (Figure S9 a) / ROS Negative Cells / ROS Positive Cells: listed as AVX420; for ROS Negative Cells (Figure S9c) / ROS Positive Cells (Figure S9c): rep1, rep2
Experimental: (§1) Data are the mean ± stdev of 3 biological replicates. […] Data are the mean ± stdev of 3 biological replicates.
Rather, when combined with AVX420, exogenous AA augmented cell death (Fig. 6e). […] The response occurred within 1 h, peaked at 8–12 h, and preceded the loss of cell viability (Fig. S9a, b).
After treatment, cells were stained with cellular ROS Assay Kit (Cat. No. ab186029; Abcam, Cambridge, United Kingdom) following the manufacturer’s instructions, and ROS-positive cells were quantified by flow cytometry using either the NovoCyte flow cytometer, and Novoexpress Software v1.5.0 from Agilent Technologies (Santa Clara, USA) or the CytoFLEX flow cytometer and CytExpert analysis software v 2.5 from Beckman Coulter (California, United States). An example showing the gating strategy used to assess ROS-Red staining is found in Fig. S9d.

Jurkat E6.1 cells [3] = experiment: cell viability, CTG assay, Jurkat E6.1; settings: Homo sapiens, Jurkat E6.1, 24 h, 24H, read-out: cell viability (0 µM = 100)
Text: as §1
Bjørn Tore Gjertsen (University of Bergen, Norway). […] The cell lines were not authenticated.

CCCCCCCOc1ccc(OCC(=O)c2nc(C(=O)OC)cs2)cc1 [GK420]
PI Negative (Figure S9b) (Jurkat E6.1 cells [1]; 1h): 92 and 90
PI Positive (Figure S9b) (Jurkat E6.1 cells [1]; 1h): 8 and 10
PI Negative (Figure S9b) (Jurkat E6.1 cells [1]; 2h): 88 and 92
PI Positive (Figure S9b) (Jurkat E6.1 cells [1]; 2h): 12 and 8
PI Negative (Figure S9b) (Jurkat E6.1 cells [1]; 4h): 94 and 93 and 92
PI Positive (Figure S9b) (Jurkat E6.1 cells [1]; 4h): 6 and 7 and 8
PI Negative (Figure S9b) (Jurkat E6.1 cells [1]; 8h): 91 (2×) and 87 and 88
PI Positive (Figure S9b) (Jurkat E6.1 cells [1]; 8h): 9 (2×) and 13 and 12
PI Negative (Figure S9b) (Jurkat E6.1 cells [1]; 12h): 80 and 83 and 82
PI Positive (Figure S9b) (Jurkat E6.1 cells [1]; 12h): 20 and 17 and 18
PI Negative (Figure S9b) (Jurkat E6.1 cells [1]; 16h): 70 and 75 and 71
PI Positive (Figure S9b) (Jurkat E6.1 cells [1]; 16h): 30 and 25 and 29
PI Negative (Figure S9b) (Jurkat E6.1 cells [1]; 24h): 65 and 67 and 73
PI Positive (Figure S9b) (Jurkat E6.1 cells [1]; 24h): 35 and 33 and 27
ROS Negative Cells (Figure S9 a) (Jurkat E6.1 cells [2]; 1h): 68 and 69 and 77 and 81
ROS Positive Cells (Figure S9 a) (Jurkat E6.1 cells [2]; 1h): 31 and 23 and 19 and 32
ROS Negative Cells (Figure S9 a) (Jurkat E6.1 cells [2]; 2h): 46 (2×) and 47 (2×) and 51 and 54 and 50 and 48
ROS Positive Cells (Figure S9 a) (Jurkat E6.1 cells [2]; 2h): 53 (2×) and 49 and 46 and 50 and 54 (2×) and 52
ROS Negative Cells (Figure S9 a) (Jurkat E6.1 cells [2]; 4h): 33 (2×) and 32 and 37 and 30 and 29 and 34 (2×)
ROS Positive Cells (Figure S9 a) (Jurkat E6.1 cells [2]; 4h): 67 (2×) and 68 and 63 and 70 and 71 and 66 (2×)
ROS Negative Cells (Figure S9 a) (Jurkat E6.1 cells [2]; 8h): 26 and 27
ROS Positive Cells (Figure S9 a) (Jurkat E6.1 cells [2]; 8h): 73 and 74
ROS Negative Cells (Figure S9 a) (Jurkat E6.1 cells [2]; 12h): 18 and 19 and 21 and 16
ROS Positive Cells (Figure S9 a) (Jurkat E6.1 cells [2]; 12h): 81 and 79 and 84 and 82
ROS Negative Cells (Figure S9 a) (Jurkat E6.1 cells [2]; 16h): 21 and 22 and 18 (2×) and 17 and 19
ROS Positive Cells (Figure S9 a) (Jurkat E6.1 cells [2]; 16h): 78 and 82 (2×) and 83 and 81 and 79
ROS Negative Cells (Figure S9 a) (Jurkat E6.1 cells [2]; 20h): 14 and 13 and 15
ROS Positive Cells (Figure S9 a) (Jurkat E6.1 cells [2]; 20h): 87 and 85 and 86
ROS Negative Cells (Figure S9 a) (Jurkat E6.1 cells [2]; 24h): 13 and 15 and 16
ROS Positive Cells (Figure S9 a) (Jurkat E6.1 cells [2]; 24h): 85 and 84 and 87
ROS Negative Cells (Figure S9c) (Jurkat E6.1 cells [2]; AVX420 0.5 µM + AA 20 µM): 80 and 83
ROS Positive Cells (Figure S9c) (Jurkat E6.1 cells [2]; AVX420 0.5 µM + AA 20 µM): 20 and 17
ROS Negative Cells (Figure S9c) (Jurkat E6.1 cells [2]; AVX420 0.5 µM + Lip 5 µM): 98 and 99
ROS Positive Cells (Figure S9c) (Jurkat E6.1 cells [2]; AVX420 0.5 µM + Lip 5 µM): 2 and 1
ROS Negative Cells (Figure S9c) (Jurkat E6.1 cells [2]; AVX420 0.5 µM): 80 and 76
ROS Positive Cells (Figure S9c) (Jurkat E6.1 cells [2]; AVX420 0.5 µM): 20 and 24
ROS Negative Cells (Jurkat E6.1 cells [2]; Jurkat E6.1, 0.25 µM): 78 and 75 and 60 and 66
ROS Positive Cells (Jurkat E6.1 cells [2]; Jurkat E6.1, 0.25 µM): 22 and 25 and 40 and 34
ROS Negative Cells (Jurkat E6.1 cells [2]; Jurkat E6.1, 0.5 µM): 46 and 45 and 51
ROS Positive Cells (Jurkat E6.1 cells [2]; Jurkat E6.1, 0.5 µM): 54 and 55 and 49
ROS Negative Cells (Jurkat E6.1 cells [2]; Jurkat E6.1, 1 µM): 19 and 21 and 30 and 22
ROS Positive Cells (Jurkat E6.1 cells [2]; Jurkat E6.1, 1 µM): 81 and 79 and 70 and 78
ROS Positive Cells (Jurkat E6.1 cells [2]; Jurkat E6.1, 2 µM): 95 and 93 and 89 and 92
intracellular ROS (iROS) (Jurkat E6.1 cells [2]; Jurkat E6.1, 4 h): dose-dependent increase
viability at 0.007 µM (Jurkat E6.1 cells [3]; Jurkat E6.1, 0.007 µM): 102%
viability at 0.015 µM (Jurkat E6.1 cells [3]; Jurkat E6.1, 0.015 µM): 96%
viability at 0.031 µM (Jurkat E6.1 cells [3]; Jurkat E6.1, 0.031 µM): 99%

— article PMC11696576, “Next generation thiazolyl ketone inhibitors of cytosolic phospholipase A2 α for targeted cancer therapy” (Nature Communications, 2025)
